What all share (type): in vivo
The subject of experiment [1] is blackgrass (Aloepecurus myosuroides). Briefly: Preemergence herbicidal activity, blackgrass. The conditions noted are these: Rate of Application 0.3 Kg/Ha, examined after 12-17 days.
For experiment [2], the system named is field corn (Zea mays var. Pioneer 3732). Briefly: Postemergence herbicidal activity, corn. Particulars: rate of application 0.3 Kg/Ha, rated after 12-17 days.
Experiment [3] has as its system green foxtail (Setaria viridis). Put plainly: Postemergence herbicidal activity, green foxtail. The conditions noted are these: rate of application 0.3 Kg/Ha, rated after 12-17 days.
The test system of experiment [4] is Johnsongrass (Sorghum halepense). Briefly: Preemergence herbicidal activity, johnsongrass. Particulars: Rate of Application 0.3 Kg/Ha, examined after 12-17 days.
The test system of experiment [5] is field corn (Zea mays var. Pioneer 3732). Put plainly: Preemergence herbicidal activity, corn. The conditions noted are these: Rate of Application 0.3 Kg/Ha, examined after 12-17 days.
For experiment [6], the system named is common cocklebur (Xanthium strumarium L.). Put plainly: Postemergence herbicidal activity, cocklebur. The conditions noted are these: rate of application 0.3 Kg/Ha, rated after 12-17 days.
Experiment [7] deals with soybean (Glycine max var. Winchester). Put plainly: Preemergence herbicidal activity, soybean. The conditions noted are these: Rate of Application 0.3 Kg/Ha, examined after 12-17 days.
In experiment [8] the test system is common cocklebur (Xanthium strumarium L.). Briefly: Preemergence herbicidal activity, cocklebur. The conditions noted are these: Rate of Application 0.3 Kg/Ha, examined after 12-17 days.
The subject of experiment [9] is velvetleaf (Abutilon theophrasti). Put plainly: Postemergence herbicidal activity, velvetleaf. Particulars: rate of application 0.3 Kg/Ha, rated after 12-17 days.
For experiment [10] the test system is unchanged. Put plainly: Preemergence herbicidal activity, velvetleaf. The conditions noted are these: Rate of Application 0.3 Kg/Ha, examined after 12-17 days.
Experiment [11] has as its system green foxtail (Setaria viridis). Put plainly: Preemergence herbicidal activity, green foxtail. The conditions noted are these: Rate of Application 0.3 Kg/Ha, examined after 12-17 days.
Experiment [12] deals with blackgrass (Aloepecurus myosuroides). Briefly: Postemergence herbicidal activity, blackgrass. The conditions noted are these: rate of application 0.3 Kg/Ha, rated after 12-17 days.
The subject of experiment [13] is morningglory (Ipomea lacunosa or Ipomea hederacea). Briefly: Preemergence herbicidal activity, morningglory. The conditions noted are these: Rate of Application 0.3 Kg/Ha, examined after 12-17 days.
In experiment [14] the test system is wheat (Triticum aestivum var. Lew). Briefly: Preemergence herbicidal activity, wheat. The conditions noted are these: Rate of Application 0.3 Kg/Ha, examined after 12-17 days.
Experiment [15] has as its system soybean (Glycine max var. Winchester). Briefly: Postemergence herbicidal activity, soybean. Particulars: rate of application 0.3 Kg/Ha, rated after 12-17 days.
The test system of experiment [16] is Johnsongrass (Sorghum halepense). Briefly: Postemergence herbicidal activity, johnsongrass. The conditions noted are these: rate of application 0.3 Kg/Ha, rated after 12-17 days.
For experiment [17], the system named is morningglory (Ipomea lacunosa or Ipomea hederacea). Put plainly: Postemergence herbicidal activity, morningglory. The conditions noted are these: rate of application 0.3 Kg/Ha, rated after 12-17 days.
The test system of experiment [18] is wheat (Triticum aestivum var. Lew). Briefly: Postemergence herbicidal activity, wheat. Particulars: rate of application 0.3 Kg/Ha, rated after 12-17 days.
In experiment [19] the test system is common chickweed (Stellaria media). Briefly: Preemergence herbicidal activity, chickweed. The conditions noted are these: Rate of Application 0.3 Kg/Ha, examined after 12-17 days.

As to `CC(=O)OCCc1cc2c(Cl)cc(F)c(-n3c(=O)cc(C(F)(F)F)n(C)c3=O)c2o1` [Compound 260], in experiment [1], the “PREEMERGENCE HERBICIDAL ACTIVITY (% CONTROL) ALOMY” value was determined as 95%. In [2], the “Postemergence herbicidal activity (% control) CRN” value is on record as 70%. In addition, the “Postemergence herbicidal activity (% control) SETVI” value in experiment [3] worked out at 100%. For the same compound, in experiment [4], the “PREEMERGENCE HERBICIDAL ACTIVITY (% CONTROL) SORHA” value came to 100%. Moreover, the “PREEMERGENCE HERBICIDAL ACTIVITY (% CONTROL) CRN” value in experiment [5] is reported as 80%. Further, the “Postemergence herbicidal activity (% control) XANPE” value in experiment [6] stood at 100%. Besides, in experiment [7], the “PREEMERGENCE HERBICIDAL ACTIVITY (% CONTROL) SOY” value was determined as 100%. Further, the “PREEMERGENCE HERBICIDAL ACTIVITY (% CONTROL) XANPE” value in experiment [8] is listed as 100%. Besides, the “Postemergence herbicidal activity (% control) ABUTH” value in experiment [9] amounted to 100%. In experiment [10], the “PREEMERGENCE HERBICIDAL ACTIVITY (% CONTROL) ABUTH” value came to 100%. For the same compound, the “PREEMERGENCE HERBICIDAL ACTIVITY (% CONTROL) SETVI” value in [11] amounted to 100%. Also, the “Postemergence herbicidal activity (% control) ALOMY” value in experiment [12] came to 90%. The “PREEMERGENCE HERBICIDAL ACTIVITY (% CONTROL) IPOSS” value in experiment [13] came out at 100%. Moreover, the “PREEMERGENCE HERBICIDAL ACTIVITY (% CONTROL) WHT” value in [14] was 70%. Moreover, in experiment [15], the “Postemergence herbicidal activity (% control) SOY” value amounted to 90%. In [16], the “Postemergence herbicidal activity (% control) SORHA” value was 90%. The “Postemergence herbicidal activity (% control) IPOSS” value in experiment [17] came out at 100%. For the same compound, in experiment [18], the “Postemergence herbicidal activity (% control) WHT” value was determined as 80%. Besides, the “PREEMERGENCE HERBICIDAL ACTIVITY (% CONTROL) STEME” value in experiment [19] is on record as 100%.
Take `Cc1nc2c(-n3c(=O)cc(C(F)(F)F)n(C)c3=O)c(F)cc(Cl)c2[nH]1` [Compound 363]: in experiment [1], the “PREEMERGENCE HERBICIDAL ACTIVITY (% CONTROL) ALOMY” value came to 100%. Besides, the “Postemergence herbicidal activity (% control) CRN” value in experiment [2] is on record as 100%. In addition, in experiment [3], the “Postemergence herbicidal activity (% control) SETVI” value is on record as 100%. Moreover, the “PREEMERGENCE HERBICIDAL ACTIVITY (% CONTROL) SORHA” value in experiment [4] was 100%. In experiment [5], the “PREEMERGENCE HERBICIDAL ACTIVITY (% CONTROL) CRN” value stood at 100%. Further, the “Postemergence herbicidal activity (% control) XANPE” value in experiment [6] is listed as 100%. The “PREEMERGENCE HERBICIDAL ACTIVITY (% CONTROL) SOY” value in experiment [7] is recorded as 100%. Further, the “PREEMERGENCE HERBICIDAL ACTIVITY (% CONTROL) XANPE” value in experiment [8] was 100%. The “Postemergence herbicidal activity (% control) ABUTH” value in [9] came to 100%. Moreover, the “PREEMERGENCE HERBICIDAL ACTIVITY (% CONTROL) ABUTH” value in [10] is on record as 100%. Moreover, the “PREEMERGENCE HERBICIDAL ACTIVITY (% CONTROL) SETVI” value in experiment [11] is 100%. Besides, the “Postemergence herbicidal activity (% control) ALOMY” value in experiment [12] worked out at 100%. The “PREEMERGENCE HERBICIDAL ACTIVITY (% CONTROL) IPOSS” value in experiment [13] is on record as 100%. The “PREEMERGENCE HERBICIDAL ACTIVITY (% CONTROL) WHT” value in experiment [14] is listed as 100%. Also, the “Postemergence herbicidal activity (% control) SOY” value in [15] is on record as 100%. Further, in [16], the “Postemergence herbicidal activity (% control) SORHA” value is recorded as 100%. The “Postemergence herbicidal activity (% control) IPOSS” value in experiment [17] amounted to 100%. For the same compound, the “Postemergence herbicidal activity (% control) WHT” value in [18] is recorded as 100%. The “PREEMERGENCE HERBICIDAL ACTIVITY (% CONTROL) STEME” value in experiment [19] is listed as 100%.
As to `Cn1c(C(F)(F)F)cc(=O)n(-c2c(F)cc(Cl)c3nc(Cc4ccccc4)[nH]c23)c1=O` [Compound 376], in experiment [1], the “PREEMERGENCE HERBICIDAL ACTIVITY (% CONTROL) ALOMY” value is listed as 100%. Besides, in experiment [2], the “Postemergence herbicidal activity (% control) CRN” value was 95%. Also, in experiment [3], the “Postemergence herbicidal activity (% control) SETVI” value was determined as 100%. Further, in [4], the “PREEMERGENCE HERBICIDAL ACTIVITY (% CONTROL) SORHA” value was 70%. In experiment [5], the “PREEMERGENCE HERBICIDAL ACTIVITY (% CONTROL) CRN” value is 80%. Besides, the “Postemergence herbicidal activity (% control) XANPE” value in [6] was found to be 100%. For the same compound, the “PREEMERGENCE HERBICIDAL ACTIVITY (% CONTROL) SOY” value in experiment [7] was 50%. The “PREEMERGENCE HERBICIDAL ACTIVITY (% CONTROL) XANPE” value in experiment [8] turned out to be 100%. In experiment [9], the “Postemergence herbicidal activity (% control) ABUTH” value is 100%. Further, the “PREEMERGENCE HERBICIDAL ACTIVITY (% CONTROL) ABUTH” value in experiment [10] was 100%. Also, in experiment [11], the “PREEMERGENCE HERBICIDAL ACTIVITY (% CONTROL) SETVI” value is 100%. In addition, the “Postemergence herbicidal activity (% control) ALOMY” value in experiment [12] stood at 90%. Besides, in experiment [13], the “PREEMERGENCE HERBICIDAL ACTIVITY (% CONTROL) IPOSS” value was found to be 100%. Besides, the “PREEMERGENCE HERBICIDAL ACTIVITY (% CONTROL) WHT” value in experiment [14] was determined as 60%. Moreover, in [15], the “Postemergence herbicidal activity (% control) SOY” value turned out to be 90%. In addition, the “Postemergence herbicidal activity (% control) SORHA” value in experiment [16] is recorded as 100%. Also, the “Postemergence herbicidal activity (% control) IPOSS” value in [17] was 100%. Also, the “Postemergence herbicidal activity (% control) WHT” value in experiment [18] was 50%. Besides, the “PREEMERGENCE HERBICIDAL ACTIVITY (% CONTROL) STEME” value in experiment [19] was determined as 100%.
`Cn1c(C(F)(F)F)cc(=O)n(-c2c(F)cc(Cl)c3nc(COc4ccccc4)[nH]c23)c1=O` [Compound 378]: the “PREEMERGENCE HERBICIDAL ACTIVITY (% CONTROL) ALOMY” value in experiment [1] turned out to be 80%. Further, the “Postemergence herbicidal activity (% control) CRN” value in experiment [2] was 90%. In [3], the “Postemergence herbicidal activity (% control) SETVI” value was 100%. Moreover, the “PREEMERGENCE HERBICIDAL ACTIVITY (% CONTROL) SORHA” value in experiment [4] is 95%. The “PREEMERGENCE HERBICIDAL ACTIVITY (% CONTROL) CRN” value in experiment [5] amounted to 90%. The “Postemergence herbicidal activity (% control) XANPE” value in experiment [6] amounted to 100%. The “PREEMERGENCE HERBICIDAL ACTIVITY (% CONTROL) SOY” value in experiment [7] is recorded as 90%. Also, the “PREEMERGENCE HERBICIDAL ACTIVITY (% CONTROL) XANPE” value in experiment [8] came to 100%. Further, the “Postemergence herbicidal activity (% control) ABUTH” value in experiment [9] turned out to be 100%. Also, the “PREEMERGENCE HERBICIDAL ACTIVITY (% CONTROL) ABUTH” value in experiment [10] is reported as 100%. Also, the “PREEMERGENCE HERBICIDAL ACTIVITY (% CONTROL) SETVI” value in experiment [11] is 100%. Further, the “Postemergence herbicidal activity (% control) ALOMY” value in experiment [12] is 80%. In experiment [13], the “PREEMERGENCE HERBICIDAL ACTIVITY (% CONTROL) IPOSS” value turned out to be 100%. In addition, the “PREEMERGENCE HERBICIDAL ACTIVITY (% CONTROL) WHT” value in [14] is 70%. Also, the “Postemergence herbicidal activity (% control) SOY” value in experiment [15] is recorded as 90%. In [16], the “Postemergence herbicidal activity (% control) SORHA” value came out at 100%. Also, in [17], the “Postemergence herbicidal activity (% control) IPOSS” value came out at 90%. Moreover, in experiment [18], the “Postemergence herbicidal activity (% control) WHT” value is listed as 40%. Besides, the “PREEMERGENCE HERBICIDAL ACTIVITY (% CONTROL) STEME” value in experiment [19] is on record as 100%.

For the origin of these results see patent US6352958B1, “Cycloimido-substituted benzofused heterocyclic herbicides” (FMC Corporation, priority 1997, dated 2002).
